Data taken from US20070027216A1, “NOVEL HYDROCHLORIDE SALTS OF LEVODOPA” (priority 2005, published 2007).

Experiments:
Aqueous solubility = type: physicochemical; conditions: water, 25 °C; at about 25 degrees C.
Method: To a slurry containing levodopa (15.1 g, 0.0766 mol) in acetonitrile (750 ml) was added concentrated hydrochloric acid (7.0 mL, 0.0781 mol) dropwise with stirring. Addition of hydrochloric acid to the slurry caused it to form a clear solution followed by precipitation of levodopa hydrochloride. The solid material was collected by filtration and dried under a flow of nitrogen overnight. The solid was characterized using PXRD (Bruker), DSC, TGA and Raman spectroscopy.

[1] = In vitro dissolution of fast-dissolve tablets in SGF (simulated gastric fluid); type: physicochemical; conditions: 50 rpm, FIG. 5; for time to realize >90% dissolved: about 400 mg tablet, target 100 mg levodopa, lactose filler, 200 mL SGF pH 2.0, 37 degrees C., average of N=2, normalized by final concentration
Method: A dissolution study for a levodopa fast-dissolve tablet feasibility study was completed. All tablets were about 400 mg total weight and contained a target of 100 mg levodopa in four forms: levodopa free base, levodopa hydrochloride salt (from Example 1), levodopa free base jet milled (5-10 micrometers), and levodopa free base jet milled granulated with HPC-L solution. The filler for the tablet was Pharmatose DCL 14 (lactose). The dissolution was carried out in 200 mL of SGF (simulated gastric fluid) at 37 degrees C. using an overhead mixer at a speed of 50 rpm. […] In the above described dissolution study, the SGF was prepared using the following preparation: Dissolved 4 grams sodium chloride and 2 grams Triton X-100 in 2000 mL HPLC grade water. Added 1 N hydrochloric acid to the solution until the pH reached 2.0.

[2] = temperature not given; cited from earlier work

time to >90% dissolved, free base versus hydrochloride salt ([1]; same tablets, 200 mL SGF, 37 degrees C.) | Compound | solubility (Aqueous solubility) [mg/mL] | time to realize >90% dissolved [1] | aqueous solubility of the free base [2]
– | Cl.NC(Cc1ccc(O)c(O)c1)C(=O)O (single isomer, unassigned; (-)) [levodopa hydrochloride salt, (−)-2-amino-3-(3,4-dihydroxyphenyl)propanoic acid hydrochloride] | 11 to 16 | ~10 min | –
about twice as long | N[C@@H](Cc1ccc(O)c(O)c1)C(=O)O [levodopa free base, (−)-2-amino-3-(3,4-dihydroxyphenyl)propanoic acid] | – | about 20 minutes | about 1.65 mg/mL
